{"source": "the supplement of paper PMC11208160"}
{"assay": "recombinant UMI read abundance after kanamycin selection (control-corrected) (log10(CPM+1)); higher = more efficient recombination; extreme values may be limits of the assay; sequences stand for … in AGTGCAGAGAAAATCGGCCAGTTTTCTCTGCCTGCAGTCCGCATGCCGTGGGACCCCTTGGGTTCTAACCTGTTGCCTAGATTTATGCAGCGGACTGCCTTTCTCCCAAAGTGATAAACCGG…AGGTTGGTTTCACT; site = the 11-nt donor", "in_short": "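The measure is log10(CPM+1) for recombinant UMIs. These were PCR-amplified across the donor–target junction and sequenced after Escherichia coli carrying a donor and donor-binding-loop pair library and a target plasmid with T7-inducible IS621 bridge recombinase was plated on IPTG (0.07 mM) plus kanamycin or unselected. CPM were averaged over two replicates and scaled by control-derived factors.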"}
{"sequence": "GTTAGACCATGGACCGGTTTTCCCGGTAATCCGTATTTGGC (site GTTAGACCTGC)", "recombinant UMI read abundance (log10)": 0}
{"sequence": "GTTAGACCATGGACCGGTTTTCCCGGTAATCCGTATTTGGC (site GTTAGAGCTGC)", "recombinant UMI read abundance (log10)": 0}
{"sequence": "GTTAGACCATGGACCGGTTTTCCCGGTAATCCGTATTTGGC (site GTTAGATCTGC)", "recombinant UMI read abundance (log10)": 0}
{"sequence": "GTTAGAGCATGGACCGGTTTTCCCGGTAATCCGTATTTGGC (site GTTAGAACTGC)", "recombinant UMI read abundance (log10)": 2.02}
{"sequence": "GTTAGAGCATGGACCGGTTTTCCCGGTAATCCGTATTTGGC (site GTTAGACCTGC)", "recombinant UMI read abundance (log10)": 0}
{"sequence": "GTTAGAGCATGGACCGGTTTTCCCGGTAATCCGTATTTGGC (site GTTAGAGCTGC)", "recombinant UMI read abundance (log10)": 2.22}
{"sequence": "GTTAGAGCATGGACCGGTTTTCCCGGTAATCCGTATTTGGC (site GTTAGATCTGC)", "recombinant UMI read abundance (log10)": 1.51}
{"sequence": "GTTAGGACATGGACCGGTTTTCCCGGTAATCCGTATTTGGC (site GTTAGAACTGC)", "recombinant UMI read abundance (log10)": 1.16}
{"sequence": "GTTAGGACATGGACCGGTTTTCCCGGTAATCCGTATTTGGC (site GTTAGCACTGC)", "recombinant UMI read abundance (log10)": 0}
{"sequence": "GTTAGGACATGGACCGGTTTTCCCGGTAATCCGTATTTGGC (site GTTAGGACTGC)", "recombinant UMI read abundance (log10)": 2.84}
{"sequence": "GTTAGGACATGGACCGGTTTTCCCGGTAATCCGTATTTGGC (site GTTAGTACTGC)", "recombinant UMI read abundance (log10)": 0}
{"sequence": "GTTATTCCATGGACCGGTTTTCCCGGTAATCCGTATTTGGT (site GTTATTCCTAC)", "recombinant UMI read abundance (log10)": 0.469}
{"sequence": "GTTATTCCATGGACCGGTTTTCCCGGTAATCCGTATTTGGT (site GTTCTTCCTAC)", "recombinant UMI read abundance (log10)": 0}
{"sequence": "GTTATTCCATGGACCGGTTTTCCCGGTAATCCGTATTTGGT (site GTTGTTCCTAC)", "recombinant UMI read abundance (log10)": 0.00973}
{"sequence": "GTTATTCCATGGACCGGTTTTCCCGGTAATCCGTATTTGGT (site GTTTTTCCTAC)", "recombinant UMI read abundance (log10)": 0}
{"sequence": "GTTCACGCATGGACCGGTTTTCCCGGTAATCCGTATTTGTT (site GTTCACGCTAA)", "recombinant UMI read abundance (log10)": 1}
{"sequence": "GTTCATACATGGACCGGTTTTCCCGGTAATCCGTATTTGTG (site GTTCATACTCA)", "recombinant UMI read abundance (log10)": 0.505}
{"sequence": "GTTCCGGCATGGACCGGTTTTCCCGGTAATCCGTATTTGCC (site GTTCCGGCTGG)", "recombinant UMI read abundance (log10)": 0}
{"sequence": "GTTCGAGCATGGACCGGTTTTCCCGGTAATCCGTATTTGAA (site GTTCGAGCTTA)", "recombinant UMI read abundance (log10)": 0.307}
{"sequence": "GTTCGAGCATGGACCGGTTTTCCCGGTAATCCGTATTTGAA (site GTTCGAGCTTC)", "recombinant UMI read abundance (log10)": 0}
{"sequence": "GTTCGAGCATGGACCGGTTTTCCCGGTAATCCGTATTTGAA (site GTTCGAGCTTG)", "recombinant UMI read abundance (log10)": 0}
{"sequence": "GTTCGAGCATGGACCGGTTTTCCCGGTAATCCGTATTTGAA (site GTTCGAGCTTT)", "recombinant UMI read abundance (log10)": 1.41}
{"sequence": "GTTCGAGCATGGACCGGTTTTCCCGGTAATCCGTATTTGCT (site GTTCGAGCTAG)", "recombinant UMI read abundance (log10)": 1.9}
{"sequence": "GTTCGAGCATGGACCGGTTTTCCCGGTAATCCGTATTTGCT (site GTTCGAGCTCG)", "recombinant UMI read abundance (log10)": 0.664}
{"sequence": "GTTCGAGCATGGACCGGTTTTCCCGGTAATCCGTATTTGCT (site GTTCGAGCTGG)", "recombinant UMI read abundance (log10)": 0.928}
{"sequence": "GTTCGAGCATGGACCGGTTTTCCCGGTAATCCGTATTTGCT (site GTTCGAGCTTG)", "recombinant UMI read abundance (log10)": 1.03}
{"sequence": "GTTCGAGCATGGACCGGTTTTCCCGGTAATCCGTATTTGGA (site GTTCGAGCTTA)", "recombinant UMI read abundance (log10)": 0.635}
{"sequence": "GTTCGAGCATGGACCGGTTTTCCCGGTAATCCGTATTTGGA (site GTTCGAGCTTC)", "recombinant UMI read abundance (log10)": 0.499}
{"sequence": "GTTCGAGCATGGACCGGTTTTCCCGGTAATCCGTATTTGGA (site GTTCGAGCTTG)", "recombinant UMI read abundance (log10)": 0}
{"sequence": "GTTCGAGCATGGACCGGTTTTCCCGGTAATCCGTATTTGGA (site GTTCGAGCTTT)", "recombinant UMI read abundance (log10)": 0.942}
{"sequence": "GTTCGATCATGGACCGGTTTTCCCGGTAATCCGTATTTGCC (site GTTCGATCTGG)", "recombinant UMI read abundance (log10)": 1.92}
{"sequence": "GTTCGTACATGGACCGGTTTTCCCGGTAATCCGTATTTGCA (site GTTCGTACTTG)", "recombinant UMI read abundance (log10)": 1.64}
{"sequence": "GTTCGTACATGGACCGGTTTTCCCGGTAATCCGTATTTGTT (site GTTCGTACTAA)", "recombinant UMI read abundance (log10)": 0.0105}
{"sequence": "GTTCGTGCATGGACCGGTTTTCCCGGTAATCCGTATTTGCA (site GTTCGAGCTTG)", "recombinant UMI read abundance (log10)": 0.585}
{"sequence": "GTTCGTGCATGGACCGGTTTTCCCGGTAATCCGTATTTGCA (site GTTCGCGCTTG)", "recombinant UMI read abundance (log10)": 0.0038}
{"sequence": "GTTCGTGCATGGACCGGTTTTCCCGGTAATCCGTATTTGCA (site GTTCGGGCTTG)", "recombinant UMI read abundance (log10)": 0.36}
{"sequence": "GTTCGTGCATGGACCGGTTTTCCCGGTAATCCGTATTTGCA (site GTTCGTGCTTG)", "recombinant UMI read abundance (log10)": 1.96}
{"sequence": "GTTGAGACATGGACCGGTTTTCCCGGTAATCCGTATTTGAC (site GTTGAGACTGT)", "recombinant UMI read abundance (log10)": 2.94}
{"sequence": "GTTGCTGCATGGACCGGTTTTCCCGGTAATCCGTATTTGAG (site GTTGCTGCTCT)", "recombinant UMI read abundance (log10)": 0.388}
{"sequence": "GTTGGACCATGGACCGGTTTTCCCGGTAATCCGTATTTGCC (site GTTGGACCTGG)", "recombinant UMI read abundance (log10)": 0}
{"sequence": "GTTGGCCCATGGACCGGTTTTCCCGGTAATCCGTATTTGAG (site GTTGGCCCTCT)", "recombinant UMI read abundance (log10)": 0.0112}
{"sequence": "GTTGGGACATGGACCGGTTTTCCCGGTAATCCGTATTTGGC (site GTTGGGACTGC)", "recombinant UMI read abundance (log10)": 1.53}
{"sequence": "GTTGGGGCATGGACCGGTTTTCCCGGTAATCCGTATTTGCG (site GTTGGGGCTCG)", "recombinant UMI read abundance (log10)": 2.05}
{"sequence": "GTTGTACCATGGACCGGTTTTCCCGGTAATCCGTATTTGGT (site GTTGTACCTAC)", "recombinant UMI read abundance (log10)": 0}
{"sequence": "GTTGTACCATGGACCGGTTTTCCCGGTAATCCGTATTTGGT (site GTTGTCCCTAC)", "recombinant UMI read abundance (log10)": 0.0245}
{"sequence": "GTTGTACCATGGACCGGTTTTCCCGGTAATCCGTATTTGGT (site GTTGTGCCTAC)", "recombinant UMI read abundance (log10)": 0.0127}
{"sequence": "GTTGTACCATGGACCGGTTTTCCCGGTAATCCGTATTTGGT (site GTTGTTCCTAC)", "recombinant UMI read abundance (log10)": 0}
{"sequence": "GTTGTGCCATGGACCGGTTTTCCCGGTAATCCGTATTTGGT (site GTTGTACCTAC)", "recombinant UMI read abundance (log10)": 0.00401}
{"sequence": "GTTGTGCCATGGACCGGTTTTCCCGGTAATCCGTATTTGGT (site GTTGTCCCTAC)", "recombinant UMI read abundance (log10)": 0.0044}
{"sequence": "GTTGTGCCATGGACCGGTTTTCCCGGTAATCCGTATTTGGT (site GTTGTGCCTAC)", "recombinant UMI read abundance (log10)": 0.0934}
{"sequence": "GTTGTGCCATGGACCGGTTTTCCCGGTAATCCGTATTTGGT (site GTTGTTCCTAC)", "recombinant UMI read abundance (log10)": 0.0079}
{"sequence": "GTTGTGGCATGGACCGGTTTTCCCGGTAATCCGTATTTGAG (site GTTGTGGCTCT)", "recombinant UMI read abundance (log10)": 1.71}
{"sequence": "GTTGTTTCATGGACCGGTTTTCCCGGTAATCCGTATTTGGT (site GTTGTTACTAC)", "recombinant UMI read abundance (log10)": 0.00963}
{"sequence": "GTTGTTTCATGGACCGGTTTTCCCGGTAATCCGTATTTGGT (site GTTGTTCCTAC)", "recombinant UMI read abundance (log10)": 0.00733}
{"sequence": "GTTGTTTCATGGACCGGTTTTCCCGGTAATCCGTATTTGGT (site GTTGTTGCTAC)", "recombinant UMI read abundance (log10)": 0.0146}
{"sequence": "GTTGTTTCATGGACCGGTTTTCCCGGTAATCCGTATTTGGT (site GTTGTTTCTAC)", "recombinant UMI read abundance (log10)": 0.83}
{"sequence": "GTTTAAACATGGACCGGTTTTCCCGGTAATCCGTATTTGGA (site GTTTAAACTTC)", "recombinant UMI read abundance (log10)": 0.655}
{"sequence": "GTTTAGGCATGGACCGGTTTTCCCGGTAATCCGTATTTGGC (site GTTTAGGCTGC)", "recombinant UMI read abundance (log10)": 2.08}
{"sequence": "GTTTGCGCATGGACCGGTTTTCCCGGTAATCCGTATTTGGC (site GTTTGCGCTGC)", "recombinant UMI read abundance (log10)": 2.03}
{"sequence": "GTTTGTTCATGGACCGGTTTTCCCGGTAATCCGTATTTGAT (site GTTTGTTCTAT)", "recombinant UMI read abundance (log10)": 0.167}
{"sequence": "GTTTTTCCATGGACCGGTTTTCCCGGTAATCCGTATTTGGT (site GTTATTCCTAC)", "recombinant UMI read abundance (log10)": 0.0038}
{"sequence": "GTTTTTCCATGGACCGGTTTTCCCGGTAATCCGTATTTGGT (site GTTCTTCCTAC)", "recombinant UMI read abundance (log10)": 0.00946}
{"sequence": "GTTTTTCCATGGACCGGTTTTCCCGGTAATCCGTATTTGGT (site GTTGTTCCTAC)", "recombinant UMI read abundance (log10)": 0.0239}
{"sequence": "GTTTTTCCATGGACCGGTTTTCCCGGTAATCCGTATTTGGT (site GTTTTTCCTAC)", "recombinant UMI read abundance (log10)": 0}
{"sequence": "TAAAAGCCATGGACCGGTTTTCCCGGTAATCCGTATTTGAG (site TAAAAGCCTCT)", "recombinant UMI read abundance (log10)": 0.525}
{"sequence": "TAAAATCCATGGACCGGTTTTCCCGGTAATCCGTATTTGTA (site TAAAATCCTTA)", "recombinant UMI read abundance (log10)": 0}
{"sequence": "TAAAATCCATGGACCGGTTTTCCCGGTAATCCGTATTTGTA (site TAAACTCCTTA)", "recombinant UMI read abundance (log10)": 1.43}
{"sequence": "TAAAATCCATGGACCGGTTTTCCCGGTAATCCGTATTTGTA (site TAAAGTCCTTA)", "recombinant UMI read abundance (log10)": 0.431}
